Test results: ChEMBL document CHEMBL5058646 (2022)

Tests used:
[1] = target: T1, Zinc finger and BTB domain-containing protein 11 (Homo sapiens) (UniProt O95625); settings: OCI-Ly1, Compound concentration 1.0 uM
T1 sequence (whole entry): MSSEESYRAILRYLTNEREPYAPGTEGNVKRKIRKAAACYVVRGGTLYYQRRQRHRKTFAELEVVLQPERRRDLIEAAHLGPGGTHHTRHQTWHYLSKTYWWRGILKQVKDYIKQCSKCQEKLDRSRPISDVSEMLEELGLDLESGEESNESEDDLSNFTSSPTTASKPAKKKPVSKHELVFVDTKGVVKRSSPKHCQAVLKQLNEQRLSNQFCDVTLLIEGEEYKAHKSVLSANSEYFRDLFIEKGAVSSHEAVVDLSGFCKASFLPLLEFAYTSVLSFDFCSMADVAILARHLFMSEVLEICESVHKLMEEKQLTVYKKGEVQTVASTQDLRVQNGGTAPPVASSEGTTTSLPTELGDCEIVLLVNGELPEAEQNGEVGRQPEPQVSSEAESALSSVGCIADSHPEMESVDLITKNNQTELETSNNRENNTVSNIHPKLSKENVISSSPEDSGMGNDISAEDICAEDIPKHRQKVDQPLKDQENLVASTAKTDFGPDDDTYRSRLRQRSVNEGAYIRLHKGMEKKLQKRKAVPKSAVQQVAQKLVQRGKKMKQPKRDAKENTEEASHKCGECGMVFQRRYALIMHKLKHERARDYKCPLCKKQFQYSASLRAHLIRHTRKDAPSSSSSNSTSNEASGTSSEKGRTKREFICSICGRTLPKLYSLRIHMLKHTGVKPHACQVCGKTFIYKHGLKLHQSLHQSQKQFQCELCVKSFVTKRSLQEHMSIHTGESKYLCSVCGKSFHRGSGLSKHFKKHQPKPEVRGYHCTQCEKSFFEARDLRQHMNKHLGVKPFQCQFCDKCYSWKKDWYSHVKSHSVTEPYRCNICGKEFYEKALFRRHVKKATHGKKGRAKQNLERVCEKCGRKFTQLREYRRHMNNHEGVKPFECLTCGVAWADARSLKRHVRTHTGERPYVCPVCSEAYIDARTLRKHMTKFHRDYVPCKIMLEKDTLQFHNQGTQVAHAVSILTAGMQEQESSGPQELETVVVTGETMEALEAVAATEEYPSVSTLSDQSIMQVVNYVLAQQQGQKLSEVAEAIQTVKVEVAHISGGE

[2] = target: T2, Zinc finger and BTB domain-containing protein 40 (Homo sapiens) (UniProt Q9NUA8); settings: SUD4, Compound concentration 1.0 uM
T2 sequence (whole entry): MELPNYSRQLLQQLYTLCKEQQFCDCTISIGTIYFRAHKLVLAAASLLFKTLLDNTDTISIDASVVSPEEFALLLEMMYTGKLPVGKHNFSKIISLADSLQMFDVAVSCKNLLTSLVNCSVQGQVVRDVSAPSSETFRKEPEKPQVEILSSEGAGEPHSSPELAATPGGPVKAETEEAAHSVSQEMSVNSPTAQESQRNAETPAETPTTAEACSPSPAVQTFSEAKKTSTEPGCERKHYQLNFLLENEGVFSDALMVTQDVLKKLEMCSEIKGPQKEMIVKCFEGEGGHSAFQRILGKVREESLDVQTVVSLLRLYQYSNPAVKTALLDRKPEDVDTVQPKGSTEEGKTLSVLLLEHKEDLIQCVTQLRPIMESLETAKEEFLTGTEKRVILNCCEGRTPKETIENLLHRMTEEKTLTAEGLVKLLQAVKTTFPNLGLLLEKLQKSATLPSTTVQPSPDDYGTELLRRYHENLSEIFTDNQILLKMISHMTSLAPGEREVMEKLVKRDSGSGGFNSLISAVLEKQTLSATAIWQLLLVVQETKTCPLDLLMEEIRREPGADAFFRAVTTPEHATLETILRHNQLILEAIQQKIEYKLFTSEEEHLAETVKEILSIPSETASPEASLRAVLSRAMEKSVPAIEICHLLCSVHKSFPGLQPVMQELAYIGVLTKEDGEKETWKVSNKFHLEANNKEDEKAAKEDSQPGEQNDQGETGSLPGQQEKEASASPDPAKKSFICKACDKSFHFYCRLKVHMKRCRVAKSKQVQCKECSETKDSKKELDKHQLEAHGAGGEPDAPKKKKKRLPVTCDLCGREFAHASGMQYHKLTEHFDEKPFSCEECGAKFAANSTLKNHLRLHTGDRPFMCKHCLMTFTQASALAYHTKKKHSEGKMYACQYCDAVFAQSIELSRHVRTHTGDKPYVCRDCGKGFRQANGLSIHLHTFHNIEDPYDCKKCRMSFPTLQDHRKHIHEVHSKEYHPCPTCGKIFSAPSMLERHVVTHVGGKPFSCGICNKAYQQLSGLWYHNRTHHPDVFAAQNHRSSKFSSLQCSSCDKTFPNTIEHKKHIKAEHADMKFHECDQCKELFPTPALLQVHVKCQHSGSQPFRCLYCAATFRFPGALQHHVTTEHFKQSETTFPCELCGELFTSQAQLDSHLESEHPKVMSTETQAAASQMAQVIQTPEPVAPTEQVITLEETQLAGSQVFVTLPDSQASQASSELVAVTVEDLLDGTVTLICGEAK

[3] = target: Death-associated protein kinase 3 (Homo sapiens) (UniProt O43293); test: DAPK3 SGC Tm panel (DSF); settings: Compound concentration 20.0 uM
[4] = target: Glycogen synthase kinase-3 beta (Homo sapiens) (UniProt P49841); test: GSK3B SGC Tm panel (DSF); settings: Compound concentration 20.0 uM
[5] = target: Dual specificity mitogen-activated protein kinase kinase 7 (Homo sapiens) (UniProt O14733); test: MAP2K7 SGC Tm panel (DSF); settings: Compound concentration 20.0 uM
[6] = target: Ribosomal protein S6 kinase alpha-1 (Homo sapiens) (UniProt Q15418); test: RPS6KA1 SGC Tm panel (DSF); settings: Compound concentration 20.0 uM
[7] = target: Calcium/calmodulin-dependent protein kinase type II subunit delta (Homo sapiens) (UniProt Q13557); test: CAMK2D SGC Tm panel (DSF); settings: Compound concentration 20.0 uM
[8] = target: Lymphokine-activated killer T-cell-originated protein kinase (Homo sapiens) (UniProt Q96KB5); test: TOPK SGC Tm panel (DSF); settings: Compound concentration 20.0 uM
Sequence of Lymphokine-activated killer T-cell-originated protein kinase (Homo sapiens) (Q96KB5 whole entry): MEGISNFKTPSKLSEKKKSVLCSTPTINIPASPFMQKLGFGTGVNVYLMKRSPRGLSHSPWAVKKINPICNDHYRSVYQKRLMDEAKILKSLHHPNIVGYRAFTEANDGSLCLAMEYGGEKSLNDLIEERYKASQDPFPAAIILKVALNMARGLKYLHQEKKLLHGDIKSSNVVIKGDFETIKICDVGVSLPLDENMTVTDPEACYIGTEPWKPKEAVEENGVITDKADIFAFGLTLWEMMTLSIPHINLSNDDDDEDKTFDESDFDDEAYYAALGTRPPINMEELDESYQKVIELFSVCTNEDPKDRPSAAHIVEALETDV

Sequence of Calcium/calmodulin-dependent protein kinase type II subunit delta (Homo sapiens) (Q13557 whole entry): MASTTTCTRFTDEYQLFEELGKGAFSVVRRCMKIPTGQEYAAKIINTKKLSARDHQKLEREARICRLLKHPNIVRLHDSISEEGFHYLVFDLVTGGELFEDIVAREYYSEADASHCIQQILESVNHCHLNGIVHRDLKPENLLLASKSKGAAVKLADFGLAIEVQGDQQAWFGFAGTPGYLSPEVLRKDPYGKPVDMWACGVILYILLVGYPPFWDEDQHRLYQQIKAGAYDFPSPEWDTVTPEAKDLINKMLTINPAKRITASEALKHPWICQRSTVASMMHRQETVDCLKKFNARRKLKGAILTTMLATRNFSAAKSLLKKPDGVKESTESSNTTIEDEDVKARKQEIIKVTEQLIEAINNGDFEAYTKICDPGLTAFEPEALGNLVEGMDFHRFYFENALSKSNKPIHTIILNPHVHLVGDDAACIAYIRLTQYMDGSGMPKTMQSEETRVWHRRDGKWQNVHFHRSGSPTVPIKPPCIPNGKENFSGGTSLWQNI
Sequence of Ribosomal protein S6 kinase alpha-1 (Homo sapiens) (Q15418 whole entry): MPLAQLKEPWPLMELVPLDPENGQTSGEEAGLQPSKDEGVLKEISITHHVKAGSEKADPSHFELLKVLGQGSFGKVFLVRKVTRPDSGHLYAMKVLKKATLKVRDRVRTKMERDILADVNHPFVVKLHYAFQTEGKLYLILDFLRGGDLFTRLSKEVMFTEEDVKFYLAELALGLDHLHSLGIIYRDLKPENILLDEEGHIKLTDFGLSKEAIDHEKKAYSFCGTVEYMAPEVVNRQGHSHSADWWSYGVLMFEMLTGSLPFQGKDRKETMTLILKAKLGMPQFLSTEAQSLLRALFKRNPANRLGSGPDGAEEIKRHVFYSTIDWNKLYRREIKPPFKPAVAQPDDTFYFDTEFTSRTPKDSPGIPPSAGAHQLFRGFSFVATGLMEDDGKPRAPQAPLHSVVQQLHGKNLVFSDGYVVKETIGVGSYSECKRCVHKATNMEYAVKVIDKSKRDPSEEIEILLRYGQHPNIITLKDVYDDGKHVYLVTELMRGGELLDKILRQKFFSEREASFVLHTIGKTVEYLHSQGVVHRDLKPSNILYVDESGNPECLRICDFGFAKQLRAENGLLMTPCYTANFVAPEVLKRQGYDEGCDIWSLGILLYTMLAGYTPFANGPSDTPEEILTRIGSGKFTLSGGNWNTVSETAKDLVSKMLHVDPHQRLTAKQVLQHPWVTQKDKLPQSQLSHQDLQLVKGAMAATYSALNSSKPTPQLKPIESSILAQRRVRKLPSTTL
Sequence of Glycogen synthase kinase-3 beta (Homo sapiens) (P49841 whole entry, looked up): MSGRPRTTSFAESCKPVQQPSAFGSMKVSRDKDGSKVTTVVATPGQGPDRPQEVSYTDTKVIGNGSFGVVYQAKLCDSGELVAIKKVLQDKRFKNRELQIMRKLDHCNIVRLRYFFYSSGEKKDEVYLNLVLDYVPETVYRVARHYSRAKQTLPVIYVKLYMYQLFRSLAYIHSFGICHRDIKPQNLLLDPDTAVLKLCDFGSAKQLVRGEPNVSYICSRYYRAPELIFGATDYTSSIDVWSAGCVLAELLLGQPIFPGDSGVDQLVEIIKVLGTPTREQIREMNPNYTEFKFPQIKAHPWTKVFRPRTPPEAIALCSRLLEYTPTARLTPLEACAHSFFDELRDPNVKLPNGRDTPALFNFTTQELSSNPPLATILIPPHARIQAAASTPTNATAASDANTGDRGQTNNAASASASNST
Sequence of Death-associated protein kinase 3 (Homo sapiens) (O43293 whole entry, looked up): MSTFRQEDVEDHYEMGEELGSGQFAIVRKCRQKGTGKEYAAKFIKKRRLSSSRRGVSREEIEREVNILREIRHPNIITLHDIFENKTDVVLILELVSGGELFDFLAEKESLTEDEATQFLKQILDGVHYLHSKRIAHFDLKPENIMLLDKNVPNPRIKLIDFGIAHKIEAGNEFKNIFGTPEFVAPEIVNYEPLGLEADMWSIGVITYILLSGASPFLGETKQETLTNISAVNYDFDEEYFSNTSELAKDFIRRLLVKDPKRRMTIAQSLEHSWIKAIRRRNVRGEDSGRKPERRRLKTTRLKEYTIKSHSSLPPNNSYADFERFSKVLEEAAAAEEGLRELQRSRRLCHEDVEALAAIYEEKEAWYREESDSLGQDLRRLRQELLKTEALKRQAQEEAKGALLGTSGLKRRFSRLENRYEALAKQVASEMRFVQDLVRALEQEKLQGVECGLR
Sequence of Dual specificity mitogen-activated protein kinase kinase 7 (Homo sapiens) (O14733 whole entry): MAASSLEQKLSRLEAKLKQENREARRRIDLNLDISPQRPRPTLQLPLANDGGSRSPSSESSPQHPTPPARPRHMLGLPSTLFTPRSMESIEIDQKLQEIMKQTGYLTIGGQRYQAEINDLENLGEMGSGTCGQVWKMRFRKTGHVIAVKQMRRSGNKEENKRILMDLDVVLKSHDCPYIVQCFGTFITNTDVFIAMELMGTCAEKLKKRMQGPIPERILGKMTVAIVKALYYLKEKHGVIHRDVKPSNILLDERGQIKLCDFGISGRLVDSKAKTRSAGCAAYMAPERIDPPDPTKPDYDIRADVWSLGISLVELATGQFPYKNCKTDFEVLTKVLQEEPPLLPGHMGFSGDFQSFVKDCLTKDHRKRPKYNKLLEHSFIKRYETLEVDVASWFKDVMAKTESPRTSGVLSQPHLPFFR

C[C@@H]1CN(c2ncc(Cl)c(Nc3ccc4c(c3)n(CCC(C)(C)O)c(=O)n4C)n2)C[C@H](C)C1(F)F
inactive: LogFC [1] -0.00672 | LogFC [2] -0.00123 | Tm [3] 39 °C | Tm [4] 45 °C | Tm [5] 44 °C | Tm [6] 50 °C | Tm [7] 47 °C | Tm [8] 43 °C
